Source: ChEMBL document CHEMBL5257152, “Antiproliferative activity and toxicity evaluation of 1,2,3-triazole and 4-methyl coumarin hybrids in the MCF7 breast cancer cell line” (RSC Med Chem, 2023)
The source made the active and inactive calls. No cut-off for these calls is given here.

Assays:
NIH3T3 [1] = test: Induction of apoptosis in mouse 3T3 cells assessed as increase in early apoptotic cells at 0.1 to 1 microM incubated for 24 hrs by Annexin V/PI staining based fluorescence microscopic analysis; type: toxicity, cell-based; conditions: nih3t3, 24 h, dose 0.1-1 µM
[2] = Selectivity index, ratio of IC50 for mouse 3T3 cells to IC50 for human SiHa cells; type: toxicity; conditions: 3T3 cells and SiHa cells, read-out: Ratio IC50
[3] = Cytotoxicity against human OVCAR cells assessed as reduction in cell viability measured after 24 hrs; type: functional, cell-based
[4] = Cytotoxicity against mouse 3T3 cells assessed as reduction in cell viability measured after 24 hrs; type: toxicity, cell-based; conditions: NIH3T3 cells
SiHa = test: Cytotoxicity against human SiHa cells assessed as reduction in cell viability measured after 24 hrs; type: functional, cell-based
MCF7 [5] = test: Cytotoxicity against human MCF7 cells assessed as reduction in cell viability measured after 24 hrs; type: functional, cell-based; conditions: MCF7, 24 h
NIH3T3 [6] = test: Induction of apoptosis in mouse 3T3 cells assessed as increase in necrotic cells at 0.1 to 1 microM incubated for 24 hrs by Annexin V/PI staining based fluorescence microscopic analysis; type: toxicity, cell-based; conditions: nih3t3, 24 h, dose 0.1-1 µM
NIH3T3 [7] = test: Antioxidant activity in mouse 3T3 cells assessed as reduction in ROS level at 0.1 to 5 uM incubated for 24 hrs by DCFH-DA dye based fluorescence microplate reader analysis; type: functional, cell-based; conditions: dose 0.1-5 µM
[8] = Selectivity index, ratio of IC50 for mouse 3T3 cells to IC50 for human MCF7 cells; type: toxicity; conditions: 3T3 cells and MCF7 cells, read-out: Ratio IC50
[9] = Genotoxicity in mouse 3T3 cells assessed as cell death at 0.1 to 5 microM incubated for 24 hrs by LMW comet assay; type: toxicity, cell-based; conditions: nih3t3, 24 h, dose 0.1-5 µM
[10] = Selectivity index, ratio of IC50 for mouse 3T3 cells to IC50 for human HepG2 cells; type: toxicity; conditions: 3T3 cells and HepG2 cells, read-out: Ratio IC50
[11] = Genotoxicity in mouse 3T3 cells assessed as primary DNA damage at 0.1 to 5 microM incubated for 24 hrs by comet assay; type: toxicity, cell-based; conditions: nih3t3, 24 h, dose 0.1-5 µM
J774.A1 = test: Cytotoxicity against mouse J774.A1 cells assessed as reduction in cell viability measured after 24 hrs; type: functional, cell-based; conditions: J774.A1, 24 h
NIH3T3 [12] = test: Disruption of mitochondrial membrane potential in mouse 3T3 cells at 0.1 to 5 uM incubated for 24 hrs by […] inclusion assay; type: toxicity, cell-based; conditions: nih3t3, 24 h, dose 0.1-5 µM
MCF7 [13] = test: Potency index, ratio of hymecromone IC50 to test compound IC50 for cytotoxicity against human MCF7 cells assessed as reduction in cell viability measured after 24 hrs; type: functional
HepG2 = test: Cytotoxicity against human HepG2 cells assessed as reduction in cell viability measured after 24 hrs; type: functional, cell-based; conditions: HepG2, 24 h
[14] = Selectivity index, ratio of IC50 for mouse 3T3 cells to IC50 for human A549 cells; type: toxicity; conditions: 3T3 cells and A549 cells, read-out: Ratio IC50
NIH3T3 [15] = test: Induction of apoptosis in mouse 3T3 cells assessed as increase in late apoptotic cells at 1 microM incubated for 24 hrs by Annexin V/PI staining based fluorescence microscopic analysis; type: toxicity, cell-based; conditions: nih3t3, 24 h
[16] = Selectivity index, ratio of IC50 for mouse 3T3 cells to IC50 for mouse J774.A1 cells
[17] = Selectivity index, ratio of IC50 for mouse 3T3 cells to IC50 for human OVCAR cells
A549 = test: Cytotoxicity against human A549 cells assessed as reduction in cell viability measured after 24 hrs; type: functional, cell-based; conditions: A549, 24 h
[18] = Antioxidant activity assessed as DPPH radical scavenging activity measured at 50 to 600 sec by spectrophotometric analysis; type: functional
RAW264.7 = test: Cytotoxicity against mouse RAW264.7 cells assessed as reduction in cell viability measured after 24 hrs; type: functional, cell-based; conditions: RAW264.7, 24 h
NIH3T3 [19] = test: Cytotoxicity against mouse 3T3 cells assessed as reduction in cell viability at 40 uM measured after 24 hrs relative to control; type: toxicity, cell-based; conditions: nih3t3, 24 h
[20] = Selectivity index, ratio of IC50 for mouse 3T3 cells to IC50 for mouse RAW264.7 cells

Row | Ratio IC50 [16] | Ratio IC50 [17] | Compound | Activity (NIH3T3 [1]) | selectivity ratio [2] | IC50 [3] [µM] | IC50 at 24 h [4] [µM] | IC50 (SiHa) [µM] | IC50 (MCF7 [5]) [µM] | Activity (NIH3T3 [6]) | Activity (NIH3T3 [7]) | selectivity ratio [8] | Activity [9] | selectivity ratio [10] | Activity [11] | IC50 (J774.A1) [µM] | Activity (NIH3T3 [12]) | Ratio IC50 (MCF7 [13]) | IC50 (HepG2) [µM] | selectivity ratio [14] | IC50 (A549) [µM] | further results
1 | 0.072 | 0.004 | Cc1cc(=O)oc2cc(OCCn3cc(-c4ccccc4)nn3)ccc12 | Toxic | < 0.001 | > 100 | 2.41 | > 100 | 2.85 | Non-Toxic | inactive | 0.845 | Non-Toxic | 0.014 | Non-Toxic | 33 | Toxic | 5 | > 100 | 0.007 | > 100 | Activity (NIH3T3 [15]): Toxic
2 |  |  | Cc1cc(=O)oc2c(O)c(O)cc(C(=O)O)c12 |  |  |  |  |  |  |  |  |  |  |  |  |  |  |  |  |  |  | IC50 [18]: 17.5 µM
3 | 0.001 | 0.012 | Cc1cc(=O)oc2cc(OCCn3cc(COc4cccc5c(C)cc(=O)oc45)nn3)ccc12 | Toxic | 0.001 | > 100 | > 40 | > 100 | 5.04 | Non-Toxic | Active | > 7.93 | Non-Toxic | 0.221 | Non-Toxic | > 100 | Toxic | 5 | 88.3 | 0.175 | > 100 | IC50 (RAW264.7): 8.37 µM; Activity (NIH3T3 [19]): Non-Toxic; Ratio IC50 [20]: 2.33
4 |  |  | Cc1cc(=O)oc2c(O)c(O)ccc12 [4-METHYLDAPHNETIN] |  |  |  |  |  |  |  |  |  |  |  |  |  |  |  |  |  |  | IC50 [18]: 33.5 µM
5 | 0.037 | < 0.001 | Cc1cc(=O)oc2cc(OCCn3cc(CO)nn3)ccc12 | Toxic | 0.002 | > 100 | 5.21 | > 100 | 10.1 | Non-Toxic | Active | 0.516 | Non-Toxic | 0.031 | Non-Toxic | > 100 | Non-Toxic | 5 | > 100 | 0.017 | > 100 | IC50 (RAW264.7): 5.08 µM; Ratio IC50 [20]: 0.025
6 |  |  | O=c1ccc2cc(O)c(O)cc2o1 [ESCULETIN] |  |  |  |  |  |  |  |  |  |  |  |  |  |  |  |  |  |  | IC50 [18]: 25.2 µM
7 | 0.171 | 0.021 | Cc1cc(=O)oc2cc(O)ccc12 [HYMECROMONE] | Toxic | 0.011 | > 100 | 24 | > 100 | 54.8 | Non-Toxic | Active | 0.438 | Non-Toxic | 0.161 | Non-Toxic | > 100 | Non-Toxic |  | > 100 | 0.155 | > 100 | 
8 |  |  | Cc1cc(=O)oc2cc(OCCn3cc(CCN4C(=O)c5ccccc5C4=O)nn3)ccc12 | Toxic | < 0.001 | 91.3 | 0.62 | > 100 | 2.66 | Non-Toxic | inactive | 0.233 | Non-Toxic | 0.007 | Non-Toxic | 39.5 | Toxic | 5 | 87.6 | 0.007 | 80.8 | 
